Experimental data from patent US5444042A, “Method of treatment of neurodegeneration with calpain inhibitors” (Cortex Pharmaceuticals, priority 1994, dated 1995).

Legend:
[1] = molecular target: T1, Calpain I from human erythrocytes (Homo sapiens, UniProt P07384); experiment: Calpain I inhibition, Suc-Leu-Tyr-AMC (Table PKC1); assay type: biochemical; conditions: 20 mM Hepes, 10 mM CaCl2, 10 mM β-mercaptoethanol, pH 7.2; read-out: Ki CI (Calpain I)
T1 construct: Calpain I from human erythrocytes and calpain II from rabbit were assayed using Suc-Leu-Tyr-AMC; from tissue; host or cells: human erythrocytes
T1 sequence (P07384 1-714): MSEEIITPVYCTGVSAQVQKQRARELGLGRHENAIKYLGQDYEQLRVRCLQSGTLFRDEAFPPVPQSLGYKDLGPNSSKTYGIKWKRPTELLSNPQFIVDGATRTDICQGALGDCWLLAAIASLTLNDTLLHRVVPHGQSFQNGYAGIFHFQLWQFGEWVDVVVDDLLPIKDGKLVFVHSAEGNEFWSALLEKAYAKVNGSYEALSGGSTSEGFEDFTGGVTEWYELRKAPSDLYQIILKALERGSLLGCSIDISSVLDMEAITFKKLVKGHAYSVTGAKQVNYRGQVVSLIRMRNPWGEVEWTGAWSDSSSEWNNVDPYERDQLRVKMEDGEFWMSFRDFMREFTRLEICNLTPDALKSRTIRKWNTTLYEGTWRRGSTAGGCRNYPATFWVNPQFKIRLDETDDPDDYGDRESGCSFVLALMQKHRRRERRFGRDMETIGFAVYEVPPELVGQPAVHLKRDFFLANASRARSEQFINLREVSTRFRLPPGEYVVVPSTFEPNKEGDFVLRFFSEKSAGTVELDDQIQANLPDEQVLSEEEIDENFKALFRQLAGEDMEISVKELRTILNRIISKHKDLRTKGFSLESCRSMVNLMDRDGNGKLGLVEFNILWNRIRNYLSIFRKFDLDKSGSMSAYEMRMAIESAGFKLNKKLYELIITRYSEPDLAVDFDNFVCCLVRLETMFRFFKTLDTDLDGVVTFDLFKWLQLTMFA
T1 sequence (P04632 1-268 partner): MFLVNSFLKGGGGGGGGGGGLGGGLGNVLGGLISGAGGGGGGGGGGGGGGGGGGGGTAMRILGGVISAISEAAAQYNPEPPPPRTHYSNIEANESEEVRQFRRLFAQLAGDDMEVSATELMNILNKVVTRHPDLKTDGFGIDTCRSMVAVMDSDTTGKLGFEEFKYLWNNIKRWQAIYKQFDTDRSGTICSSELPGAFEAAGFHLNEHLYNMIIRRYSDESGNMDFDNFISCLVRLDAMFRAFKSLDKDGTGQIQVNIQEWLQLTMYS
Description: (§1) Our discovery of Peptide Keto-Compounds effective as Calpain Inhibitors was made through assay of the Peptide Keto-Compounds as reversible inhibitors. Various concentrations of inhibitors in dimethylsulfoxide (DMSO) were added to the assay mixture, which contained buffer and substrate. The reaction was started by the addition of the enzyme and the hydrolysis rates were followed spectrophotometrically or fluorimetrically. 88 mM KH2 PO4, 12 mM Na2 HPO4, 1.33 mM EDTA, 2.7 mM cysteine, pH 6.0 was used as a buffer for cathepsin B; and 20 mM Hepes, 10 mM CaCl2, 10 mM β-mercaptoethanol, pH 7.2 buffer was utilized for calpain I and calpain II.
(§2) All peptide thioester hydrolysis rates were measured with assay mixtures containing 4,4'-dithiodipyridine [e324=19800 M-1 cm-1; Grasetti & Murray, Arch. Biochem. Biophys. 119, pp 41-49 (1967)]. Papain was assayed with Bz-Arg-AMC or Bz-Arg-NA [Kanaoka et al., Chem. Pharm. Bull. 25, 3126-3128 (1977)], and the AMC (7-amino-4-methylcoumarin) release was followed fluorimetrically (excitation at 380 nm, and emission at 460 nm). Cathepsin B was assayed with Z-Arg-Arg-AFC [Barrett and Kirschke, Methods Enzymol. 80, 535-561 (1981)], and the AFC (7-amino-4-trifluoromethylcoumarin) release was followed fluorimetrically (excitation at 400 nm, and emission at 505 nm). Calpain I from human erythrocytes and calpain II from rabbit were assayed using Suc-Leu-Tyr-AMC [Sasaki et al., J. Biol. Chem. 259, 12489-12494 (1984), hereby incorporated by reference], and the AMC (7-amino-4-methylcoumarin) release was followed fluorimetrically (excitation at 380 nm, and emission at 460 nm). Enzymatic hydrolysis rates were measured at various substrate and inhibitor concentrations, and Ki values were determined by Dixon plot.

[2] = molecular target: T1, Calpain I from human erythrocytes; experiment: Calpain I Ki (Table 1B(i)); assay type: biochemical; conditions: Suc-Leu-Tyr-amidomethylcoumarin, HEPES pH 7.2
Description: (§3) The Peptide Keto-Compounds are reversible inhibitors of Calpains and other thiol proteases. […] Cathepsin B from bovine spleen was assayed using Z-Lys-4-nitrophenylphosphate as substrate.
(§4) The Ki value for the inhibition of Calpains and cathepsin B by several Peptide Keto-Compounds are shown in μM (micromolar). The values for leupeptin, which is commercially available from Calbiochem of La Jolla, Calif., are shown for comparison.

calpain II from rabbit = experiment: Calpain II inhibition, Suc-Leu-Tyr-AMC (Table PKC1); assay type: biochemical; conditions: 20 mM Hepes, 10 mM CaCl2, 10 mM β-mercaptoethanol, pH 7.2; read-out: Ki CII (Calpain II)
Description: as §1, §2

Cathepsin B = Cathepsin B (Bos taurus, UniProt P07688); experiment: Cathepsin B KI (Table 1B(ii)); assay type: biochemical; conditions: read-out: KI CathB
From the text: (§5) We tested the ability of an additional group of Peptide Keto-Compounds to inhibit several proteases in order to evaluate their specificity for Calpain.

Calpain II = Calpain II KI (Table 1B(ii)); assay type: biochemical
From the text: as §5

Chym = Chym (Bos taurus, UniProt P00766); experiment: Chym KI (Table 1B(ii)); assay type: biochemical
From the text: as §5

Stability in plasma = assay type: in vitro ADME; conditions: unit assumed
From the text: We determined the haft-life of several Peptide Keto-Compounds in both plasma and liver homogenates.

[3] = molecular target: T2, Cathepsin B from bovine spleen (Bos taurus, UniProt P07688); experiment: Cathepsin B Ki (Table 1B(i)); assay type: biochemical; conditions: substrate Z-Lys-4-nitrophenylphosphate
T2 construct: Cathepsin B from bovine spleen was assayed using Z-Lys-4-nitrophenylphosphate as substrate; from tissue; host or cells: bovine spleen
Description: as §3, §4

Papain = molecular target: T3, Papain (Carica papaya, UniProt P00784); experiment: Papain KI (Table 1B(ii)); assay type: biochemical
T3 sequence (P00784 134-345): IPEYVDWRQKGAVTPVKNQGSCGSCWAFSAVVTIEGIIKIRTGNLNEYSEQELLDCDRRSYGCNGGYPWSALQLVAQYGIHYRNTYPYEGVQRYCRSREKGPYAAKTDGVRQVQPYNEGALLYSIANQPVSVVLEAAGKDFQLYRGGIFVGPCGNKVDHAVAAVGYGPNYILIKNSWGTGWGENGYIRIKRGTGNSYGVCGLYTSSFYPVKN
From the text: as §5

With `CCC(NC(=O)[C@@H]1CCCN1C(=O)[C@H](C)NC(=O)[C@H](C)NC(=O)CCC(=O)OC)C(=O)C(=O)OC` (mixture of isomers) [MeO-Suc-Ala-Ala-Pro-Abu-COOMe, MeO-Suc-Ala-Ala-Pro-DL-Abu-CO2 Me] the Ki [1] was 100 µM.

Compound `CCOC(=O)C(=O)C(CC)NC(=O)[C@H](C)NC(=O)[C@H](C)NC(=O)OCc1ccccc1` (mixture of isomers) [Z-Ala-Ala-DL-Abu-COOEt, Z-Ala-Ala-DL-Abu-CO2 Et] has a Ki [1] of 50 µM, a Ki [2] of 50 µM and a Ki (calpain II from rabbit) of 200 µM.

In the case of `CCOC(=O)C(=O)[C@H](CC)NC(=O)[C@H](CC(C)C)NC(=O)OCc1ccccc1` (racemic) [Z-Leu-Abu-COOEt, Z-Leu-DL-Abu-COOEt], the Ki (Cathepsin B) is reported as 30 µM, the Ki (Calpain II) is reported as 0.4 µM and the Ki (Chym) is reported as over 100 µM. It also gave a Ki [1] of 0.04 µM, a Ki [2] of 0.04 µM and a t1/2 plasma (Stability in plasma) of 2.8 min. It also gave a Ki (calpain II from rabbit) of 0.4 µM, a Ki [3] of 14 µM and a Ki (Papain) of 220 µM.

Compound `CCCC(NC(=O)[C@H](CC(C)C)NC(=O)OCc1ccccc1)C(=O)C(=O)OCC` (mixture of isomers) [Z-Leu-Nva-COOEt, Z-Leu-DL-Nva-COOEt] has a Ki (Cathepsin B) of 25 µM, a Ki (Calpain II) of 1.2 µM and a Ki (Chym) of 160 µM. It also gave a t1/2 plasma (Stability in plasma) of 2.8 min, a Ki (calpain II from rabbit) of 1.2 µM and a Ki [3] of 30 µM. It also gave a Ki (Papain) of 150 µM.

In the case of `CC(=O)N[C@@H](CC(C)C)C(=O)N[C@@H](CC(C)C)C(=O)N[C@H](C=O)CCCNC(=N)N` [Leupeptin, Ac-Leu-Leu-Arg-H, reference compound], the Ki [2] is reported as 0.32 µM and the Ki [3] is reported as 6 µM.

For `CCCCC(NC(=O)C(CC(C)C)NC(=O)OCc1ccccc1)C(=O)C(=O)OCC` (stereo not drawn) [Z-Leu-Nle-COOEt, Z-Leu-NLeu-CO2 Et], the Ki (Cathepsin B) was 20 µM, the Ki (Calpain II) was 0.18 µM and the Ki [1] was 0.12 µM. It also gave a t1/2 plasma (Stability in plasma) of 3.7 min, a Ki (calpain II from rabbit) of 0.18 µM and a Ki [3] of 18 µM. It also gave a Ki (Papain) of 190 µM.

In the case of `CCOC(=O)C(=O)C(Cc1ccccc1)NC(=O)C(CC(C)C)NC(=O)OCc1ccccc1` (stereo not drawn) [Z-Leu-Phe-COOEt], the Ki (Cathepsin B) is reported as 340 µM, the Ki (Calpain II) is reported as 0.4 µM and the Ki (Chym) is reported as 0.025 µM. It also gave a Ki [1] of 0.23 µM, a t1/2 plasma (Stability in plasma) of 7.8 min and a Ki (calpain II from rabbit) of 0.4 µM. For the same compound, the Ki [3] was over 50 µM and the Ki (Papain) was 75 µM.
